Where two headings read alike, the source gives them in different places.
Molecular target: T1, CYP1A2 (Homo sapiens, UniProt P05177)
T1 construct: incubation mixtures containing pooled human liver microsomes (HLMs, XTreme 200, XenoTech); tissue XenoTech XTreme 200; host or cells: pooled human liver microsomes
T1 sequence (P05177 1-516): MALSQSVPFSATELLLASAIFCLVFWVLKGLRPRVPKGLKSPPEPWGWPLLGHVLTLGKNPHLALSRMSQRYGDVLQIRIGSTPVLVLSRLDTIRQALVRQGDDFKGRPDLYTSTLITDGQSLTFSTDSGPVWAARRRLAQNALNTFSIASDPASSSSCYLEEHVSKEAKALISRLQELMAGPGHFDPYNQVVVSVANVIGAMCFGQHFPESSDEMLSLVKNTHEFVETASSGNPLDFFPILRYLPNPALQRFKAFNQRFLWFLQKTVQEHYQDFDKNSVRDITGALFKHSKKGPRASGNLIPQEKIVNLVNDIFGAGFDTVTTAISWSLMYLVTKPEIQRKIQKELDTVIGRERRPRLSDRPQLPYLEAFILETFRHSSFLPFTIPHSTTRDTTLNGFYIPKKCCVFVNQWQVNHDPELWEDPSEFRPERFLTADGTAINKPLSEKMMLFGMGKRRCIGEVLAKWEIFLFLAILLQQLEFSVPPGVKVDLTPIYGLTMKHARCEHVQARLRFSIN
Experiment: Inhibition of CYP1A2-catalyzed phenacetin O-deethylation in pooled human liver microsomes
Assay type: in vitro ADME
Experimental: The inhibitory potential of the five biflavonoids on the metabolism of nine P450 probe substrates was evaluated using previously developed methods with minor modifications. Biflavonoids were dissolved in methanol. The final concentration of methanol in the incubation mixture was 1.0% (v/v). We used these P450 probe substrates: phenacetin for CYP1A2, coumarin for CYP2A6, bupropion for CYP2B6, amodiaquine for CYP2C8, diclofenac for CYP2C9, omeprazole for CYP2C19, dextromethorphan for CYP2D6, chlorzoxazone for CYP2E1 and midazolam for CYP3A (Table 1). […] The reaction was stopped by adding 50 μL of ice-cold acetonitrile containing 7 nM trimipramine (internal standard, IS). After centrifugation at 18,000 g (5 min, 4 °C), aliquots of supernatants were analyzed by LC-MS/MS (Shimadzu LCMS 8060 system, Shimadzu, Kyoto, Japan). All microsomal incubations were conducted in triplicate. We used HLMs to determine the mechanisms and constants (Ki values) for […] A inhibition of CYP1A2, CYP2B6, CYP2C8, CYP2C9 and CYP3A. […] The substrates were used at concentrations approximately near to their respective Km values. […] The other conditions were the same as in the cytochrome P450 inhibition study. […] Phenomenex, Torrance, CA, USA) and analyzed using a Shimadzu LCMS 8060 triple-quadrupole mass spectrometer coupled with a Nexera X2 ultra high-performance liquid chromatography system (Shimadzu, Kyoto, Japan) equipped with an electrospray ionization interface. The mobile phase consisted of 0.1% formic acid in water (A) and 0.1% formic acid in acetonitrile (B). […] The flow rate was 0.2 mL/min. Electrospray ionization was performed in positive-ion mode at 4000 V or in negative-ion mode at -3500 V. […] Quantitation was conducted in selected reaction monitoring (SRM) modes with the precursor-to-product ion transition for each metabolite (Table 1 and Table 2). We analyzed the data with Shimadzu LabSolution LC-MS software. The IC50 values were calculated by WinNonlin software (Pharsight, Mountain View, CA, USA). The type of inhibition and the apparent kinetic parameters for inhibitory activity (Ki) were determined by following several criteria: visual inspection of Dixon plots, Lineweaver-Burk double reciprocal plots, and secondary plots of Lineweaver-Burk plots versus biflavonoid concentrations, the size of the sum of squares of the residuals, Akaike Information Criteria values, the S.E. and 95% confidence interval of the parameter estimates from the nonlinear regression analysis using the WinNonlin software. The models tested included competitive, competitive partial, noncompetitive, noncompetitive partial, uncompetitive, uncompetitive partial, and mixed-type inhibition.

[1] = substrate phenacetin 100 µM, pooled HLMs, read-out: IC50, P450 1A2

| IC50 [1] [µM] | SMILES | further results |
| --- | --- | --- |
|  | O=c1cc(-c2ccc(O)c(-c3c(O)cc(O)c4c(=O)cc(-c5ccc(O)cc5)oc34)c2)oc2cc(O)cc(O)c12 [amentoflavone] | IC50: 4.4 µM |
| 5.9 | O=c1cc(-c2ccc(O)cc2)oc2c(-c3c(O)cc(O)c4c(=O)cc(-c5ccc(O)cc5)oc34)c(O)cc(O)c12 [cupressuflavone] |  |
| 4.5 | O=c1cc(-c2ccc(O)c(-c3c(O)cc4oc(-c5ccc(O)cc5)cc(=O)c4c3O)c2)oc2cc(O)cc(O)c12 [robustaflavone] |  |
| 7.4 | O=C1CC(c2cc(-c3c(O)ccc4c(=O)cc(-c5ccc(O)cc5)oc34)c(O)cc2O)Oc2cc(O)cc(O)c21 (centres unmarked) [selamariscina A] | Mode of Inhibition, CYP1A2 phenacetin (HLMs): Competitive; Ki (HLMs, average ± standard error, triplicate): 3.1 ± 0.6 µM |
| 6.8 | O=c1cc(-c2ccc(O)c(-c3c(-c4ccc(O)cc4)oc4cc(O)cc(O)c4c3=O)c2)oc2cc(O)cc(O)c12 [taiwaniaflavone] |  |

| SMILES | IC50 [1] [µM] | further results |
| --- | --- | --- |
| CC(C)(O)c1ccccc1CC[C@@H](SCC1(CC(=O)O)CC1)c1cccc(/C=C/c2ccc3ccc(Cl)cc3n2)c1 [montelukast, reference compound] | > 50 |  |

Reference: PMC7238120, “Strong and Selective Inhibitory Effects of the Biflavonoid Selamariscina A against CYP2C8 and CYP2C9 Enzyme Activities in Human Liver Microsomes” (Pharmaceutics, 2020)
